PubChem BioAssay (NCI)
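A five-concentration, 48-hour dose response in 96-well plates underlies each endpoint, interpolated linearly between surrounding concentrations. GI50 is the concentration that inhibits growth by half. Definition used: TGI = concentration required for complete inhibition of growth.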

What was measured:
Experiment in all cases: NCI anticancer screen, dose series, 48 h
[1] = system: NCI-H226 lung
[2] = system: EKVX NSCLC
[3] = system: NCI-H460 lung
[4] = system: PC-3 prostate
[5] = system: SW-620 colon
[6] = system: KM12 colon
[7] = system: UO-31 renal
[8] = system: OVCAR-5 ovarian
[9] = system: HCT-15 colon
[10] = system: MDA-MB-231 breast
[11] = system: CCRF-CEM leukemia
[12] = system: A549 NSCLC
[13] = system: CAKI-1 renal
[14] = system: OVCAR-8 ovarian
[15] = system: NCI-H522 lung
[16] = system: M14 melanoma
[17] = system: A498 renal
[18] = system: HS 578T breast
[19] = system: SF-268 CNS
[20] = system: U251 CNS
[21] = system: NCI-H23 lung
[22] = system: COLO 205 colon
[23] = system: SK-MEL-2 melanoma
[24] = system: MCF7 breast
[25] = system: HOP-62 NSCLC
[26] = system: SK-OV-3 ovarian
[27] = system: T-47D breast
[28] = system: K-562 leukemia
[29] = system: OVCAR-3 ovarian
[30] = system: IGROV1 ovarian
[31] = system: HCC-2998 colon
[32] = system: 786-0 renal
[33] = system: SF-295 CNS
[34] = system: BT-549 breast
[35] = system: SN12C renal
[36] = system: DU-145 prostate
[37] = system: MALME-3M melanoma
[38] = system: UACC-257 melanoma
[39] = system: SNB-75 CNS
[40] = system: OVCAR-4 ovarian
[41] = system: SK-MEL-28 melanoma
[42] = system: MDA-MB-435
[43] = system: HL-60(TB) leukemia
[44] = system: HT29 colon
[45] = system: LOX IMVI melanoma
[46] = system: HOP-92 NSCLC
[47] = system: UACC-62 melanoma
[48] = system: SNB-19 CNS
[49] = system: TK-10 renal
[50] = system: SK-MEL-5 melanoma
[51] = system: SF-539 CNS
[52] = system: RXF 393 renal
[53] = system: MOLT-4 leukemia
[54] = system: ACHN renal
[55] = system: HCT-116 colon
[56] = system: RPMI-8226 leukemia
[57] = system: NCI/ADR-RES ovarian

Cc1cc(O)cc(C)c1/C=C/c1cncc(C(=O)OC(C)(C)C)c1
GI50 [1]: > 25 µM
TGI [1]: > 25 µM
GI50 [2]: 12.6 µM
TGI [2]: > 25 µM
GI50 [3]: 13.5 µM
TGI [3]: > 25 µM
GI50 [4]: 10.4 µM
TGI [4]: > 25 µM
GI50 [5]: 20.2 µM
TGI [5]: > 25 µM
GI50 [6]: 15.2 µM
TGI [6]: > 25 µM
GI50 [7]: 8.34 µM
TGI [7]: > 25 µM
GI50 [8]: > 25 µM
TGI [8]: > 25 µM
GI50 [9]: 11.5 µM
TGI [9]: > 25 µM
GI50 [10]: 14 µM
TGI [10]: > 25 µM
GI50 [11]: 3.13 µM
TGI [11]: > 25 µM
GI50 [12]: 9.23 µM
TGI [12]: > 25 µM
GI50 [13]: 12.3 µM
TGI [13]: > 25 µM
GI50 [14]: 18 µM
TGI [14]: > 25 µM
GI50 [15]: 7.95 µM
TGI [15]: 24.8 µM
GI50 [16]: > 24 µM
TGI [16]: > 25 µM
GI50 [17]: 8.09 µM
TGI [17]: > 25 µM
GI50 [18]: 7.64 µM
TGI [18]: 24.7 µM
GI50 [19]: 20.7 µM
TGI [19]: > 25 µM
GI50 [20]: 14.9 µM
TGI [20]: > 25 µM
GI50 [21]: > 20 µM
TGI [21]: > 25 µM
GI50 [22]: > 25 µM
TGI [22]: > 25 µM
GI50 [23]: > 22.1 µM
TGI [23]: > 25 µM
GI50 [24]: 11.8 µM
TGI [24]: > 25 µM
GI50 [25]: > 19.4 µM
TGI [25]: > 25 µM
GI50 [26]: 16.1 µM
TGI [26]: > 25 µM
GI50 [27]: 10.7 µM
TGI [27]: > 25 µM
GI50 [28]: 11.6 µM
TGI [28]: > 25 µM
GI50 [29]: 17 µM
TGI [29]: > 25 µM
GI50 [30]: 13.2 µM
TGI [30]: > 25 µM
GI50 [31]: > 25 µM
TGI [31]: > 25 µM
GI50 [32]: 19.1 µM
TGI [32]: > 25 µM
GI50 [33]: 19.8 µM
TGI [33]: > 25 µM
GI50 [34]: > 20.8 µM
TGI [34]: > 25 µM
GI50 [35]: 12.6 µM
TGI [35]: > 25 µM
GI50 [36]: 17 µM
TGI [36]: > 25 µM
GI50 [37]: > 16.6 µM
TGI [37]: > 25 µM
GI50 [38]: 19.6 µM
TGI [38]: > 25 µM
GI50 [39]: 4.75 µM
TGI [39]: > 23.9 µM
GI50 [40]: 12.2 µM
TGI [40]: > 25 µM
GI50 [41]: 17.9 µM
TGI [41]: > 25 µM
GI50 [42]: 11.6 µM
TGI [42]: > 25 µM
GI50 [43]: 8.65 µM
TGI [43]: 22.7 µM
GI50 [44]: > 16.8 µM
TGI [44]: > 25 µM
GI50 [45]: 16 µM
TGI [45]: > 25 µM
GI50 [46]: 4.01 µM
TGI [46]: 18.8 µM
GI50 [47]: 17 µM
TGI [47]: > 25 µM
GI50 [48]: > 25 µM
TGI [48]: > 25 µM
GI50 [49]: > 23.5 µM
TGI [49]: > 25 µM
GI50 [50]: 10.2 µM
TGI [50]: > 25 µM
GI50 [51]: > 18.5 µM
TGI [51]: > 25 µM
GI50 [52]: 9.75 µM
TGI [52]: > 25 µM
GI50 [53]: 15 µM
TGI [53]: > 25 µM
GI50 [54]: 12.7 µM
TGI [54]: > 25 µM
GI50 [55]: 14.1 µM
TGI [55]: > 25 µM
GI50 [56]: > 22.4 µM
TGI [56]: > 25 µM
GI50 [57]: 14.6 µM
TGI [57]: > 25 µM
